Measurements published in patent US20110008433A1, “Herbal Composition for Osteoarthritis” (priority 2009, published 2011).
“And” between values parts separate entries of the source, which are not always exact repeats. Identical values can stand only once.

Experiments:
MMP-2 [1] = target: T1, MMP-2 (Homo sapiens, UniProt P08253); assay: Inhibition of MMP-2 activity in cell free system, gelatin zymography; type: biochemical; conditions: for MMP-2 activity (% of control): 24 hours
T1 construct: Serum free culture supernatant of confluent human dermal fibroblast was used as the source of MMP; endogenous in cells; host or cells: human dermal fibroblasts, serum-free culture supernatant
T1 sequence (P08253 110-660): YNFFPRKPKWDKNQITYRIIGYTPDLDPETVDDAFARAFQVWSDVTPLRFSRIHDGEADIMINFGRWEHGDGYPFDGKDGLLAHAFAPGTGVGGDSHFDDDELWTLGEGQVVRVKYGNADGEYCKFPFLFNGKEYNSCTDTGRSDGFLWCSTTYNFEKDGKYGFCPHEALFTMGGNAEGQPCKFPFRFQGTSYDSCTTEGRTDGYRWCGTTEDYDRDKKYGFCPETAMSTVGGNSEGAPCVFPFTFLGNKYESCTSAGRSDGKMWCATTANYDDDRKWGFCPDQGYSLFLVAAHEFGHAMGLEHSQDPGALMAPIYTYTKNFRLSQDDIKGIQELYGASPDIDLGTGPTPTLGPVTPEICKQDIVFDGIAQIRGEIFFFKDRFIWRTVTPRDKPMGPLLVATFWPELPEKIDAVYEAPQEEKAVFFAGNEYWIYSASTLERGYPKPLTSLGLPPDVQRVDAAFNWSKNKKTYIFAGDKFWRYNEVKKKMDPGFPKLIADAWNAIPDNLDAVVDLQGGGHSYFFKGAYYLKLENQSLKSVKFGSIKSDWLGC
Procedure: Serum free culture supernatant of confluent human dermal fibroblast was used as the source of MMP. Equal amount of the supernatant treated with equal volume of 2 fold concentration of SDS sample buffer without reducing agent was subjected to electrophoresis The samples were loaded into each well of a 10% SDS polyacrylamide gel containing 1 mg/ml of bovine gelatin (Sigma), and run at 20 mA in ice bath by a BioRad Mini Protean gel apparatus. After dye front reached the bottom of the gel, the gel was washed three times, 15 minutes each, with 2.5% Triton X-100. Then, the gel was sliced and incubated in developing buffer (50 mM Tris-HCl, pH7.6, 10 mM CaCl2, 50 mM NaCl, 0.05% Brij35) containing SO101C or EDTA or vehicle at 37° C. for 24 hours. The gel was stained with 0.1% Coomassie blue R250 (Sigma) in 40% methanol and 10% acetic acid, and destained in 30% methanol and 7% acetic acid. The enzyme digested clear bands were visualized in the blue background. The comparison of the enzymatic activities (clear band width) was analyzed by Image J (NIH).

[2] = Free radical scavenger, SOD mimetic activity (xanthine/xanthine oxidase, NBT); type: biochemical
Procedure: SO101C or vehicle was incubated with 0.12 mM xanthine, 6 mU xanthine oxidase, 27 μM nitroblue tetrazolium (NBT), 0.11 mM EDTA, 0.005% bovine serum albumin and Na2CO3 at pH 10.5 at 25° C. for 20 minutes. Conversion of xanthine to uric acid +O^−+NBT to formazan was then determined by measurement of absorbance at 595 nm and percent inhibition by superoxide dismutase or test compound was calculated.

[3] = 2,2-diphenyl-1-picrylhydrazyl (DPPH) radical scavenging activity; conditions: for Absorbance at 517 nm, Sample 1 to 3: 30 minutes, single samples; for Absorbance at 517 nm, Average: control 0.963
Procedure: SO101C, vitamin C or vitamin E at various concentrations were incubated with 0.4 mM 2,2-diphenyl-1-picrylhydrazyl (DPPH, Sigma) in ethanol at room temperature for 30 minutes. Absorbance at 517 nm was measured by a spectrophotometer.

[4] = target: T2, MMP-3 (stromelysin-1, human recombinant catalytic domain) (Homo sapiens, UniProt P08254); assay: Inhibition of MMP-3 enzyme activity, fluorogenic substrate; type: biochemical
T2 construct: MMP-3 (stromelysin-1, human recombinant catalytic domain from Calbiochem Cat. 444217); purchased Calbiochem 444217
Procedure: (§1) MMP-3 (stromelysin-1, human recombinant catalytic domain from Calbiochem Cat. 444217) was activated by p-aminophenylmercuric acetate for 60 minutes at 37° C. After preincubation of SO101C or vehicle with the activated enzyme (5 nM) in a reaction mixture containing 50 mM MOPS (pH 7.2), 10 mM CaCl2 and 10 μM ZnCl2 at 37° C. for 60 minutes, the reaction was initiated by addition of 4 μM (7-methoxycoumarin-4-yl)acetyl-Pro-Leu-Gly-Leu-N-3-(2,4-dinitrophenyl)-L-2,3-diaminopropinoyl-Ala-Arg-NH2 and incubated for a further 120 minutes at 37° C. Enzyme activity was determined spectrofluorometrically by measuring the formation of fluorescent (7-methoxycoumarin-4-yl)acetyl-Pro-Leu-Gly.

[5] = target: T3, MMP-13 (human recombinant) (Homo sapiens, UniProt P45452); assay: Inhibition of MMP-13 enzyme activity, fluorogenic substrate; type: biochemical
T3 construct: purchased Calbiochem 444248; host or cells: Sf9
Procedure: as §1, with “MMP-13 proenzyme (human recombinant, expressed in Sf9 cell,” for “MMP-3 (stromelysin-1, human recombinant catalytic domain from”, “444248)” for “444217)”, “with the activated enzyme (0.5” for “(5”, “ZnCl2 for 60 minutes” for “ZnCl2”, “C.,” for “C. for 60 minutes,”

chondrocytes = assay: ALP, collagen and GAGs synthesis in chondrocytes in micromass culture (staining), without or with H2O2; type: cell-based, Human; conditions: 1 mM; same experimental conditions
Procedure: Human articular cartilage was obtained from patients who received total joint replacement with consent. The cartilage was digested with 1 mg/ml of Class 2 and Class 4 bacterial collagenase (Worthington Chemical, Freehold, N.J.) in DMEM containing 10% fetal calf serum (FCS) and 25 μg/ml Gentamicin (C-DMEM, Gibco, Grand Island, […]) at 37° C. overnight. […] Ten μl of 1×10^7 cells/ml in C-DMEM was seeded into the center of each well of 48 multiwell culture dish (Nunc, Roskilde, Danmark). […] The media were changed twice a week for two weeks. At the end of the incubation, the media were changed with fresh DMEM. Twenty-four hours later, the media were collected for MMP zymography study and cells were fixed and stained for alkaline phosphatase (ALP), collagen or glycosaminoglycan using Naphthol AS-MX phosphate/Fast red, Sirius red, or Safranin O (Sigma), respectively.

[6] = tested on: Human bone marrow mesenchymal stem cells; assay: ALP, collagen and GAGs synthesis in bone marrow mesenchymal stem cells in micromass culture (staining); type: cell-based; conditions: 1 mM; same experimental conditions
Procedure: Human bone marrow mesenchymal stem cells were obtained from patients receiving total joint replacement with consent. […] Ten μl of 1×10^7 cells/ml in C-DMEM was seeded into the center of each well of 48 multiwell culture dish (Nunc, Roskilde, Danmark). […] The media were changed twice a week for two weeks. At the end of the incubation, cells were fixed and stained for alkaline phosphatase (ALP), collagen or glycosaminoglycan using Naphthol AS-MX phosphate/Fast red, Sirius red, or Safranin O (Sigma), respectively.

human chondrocytes = assay: Gene expression of chondrocytes (RT-PCR, normalized by β-Actin); type: cell-based; conditions: 2 weeks
Procedure: Reverse transcription was carried out at 37° C. for one hour by a programmable thermal controller (PTC-100, MJ Research, Inc., Watertown, Mass.). Reaction was terminated by raising the temperature to 93° C. for five minutes. PCR was performed in a thermal controller (PTC-100, MJ Research, Inc., Watertown, Mass.) with master mix (HotStarTaq DNA polymerase, Qiagen) at initial denaturation at 95° C. for 15 minutes, followed by 25 cycles of 94° C. for 1 minute, 58° C. for 40 seconds, and 72° C. for 40 seconds. The final cycle extended 72° C. for 10 minutes. The PCR products accompanied by 100 bp ET marker were separated by 1.2% agarose gel, stained with ethidium bromide and visualized under UV light. A Polaroid picture was taken by Foto/Phoresis UV documentation system (Fotodyne Inc.). Beta-actin expression under the same experimental conditions was used as a reference to normalize the expressions. The comparison of bend width of PCR was analyzed by Image J (NIH) after normalized by the expression of β-Actin.

MMP-2 [7] = assay: MMP-2 activities of treated chondrocyte culture supernatants, gelatin zymography; type: cell-based, Human; conditions: 1 mM; chondrocytes treated 2 weeks
Procedure: Ten μl of 1×10^7 cells/ml in C-DMEM was seeded into the center of each well of 48 multiwell culture dish (Nunc, Roskilde, Danmark). Two hours later, 250 μl of F12/DMEM containing 5% FCS, 6.25 μg/ml bovine insulin, 25 μg/ml ascorbic acid and 100 nM Dexamethasone (induction medium) with various concentrations of herbal composition or glucosamine (Sigma) was added. The media were changed twice a week for two weeks. At the end of the incubation, the media were changed with fresh DMEM.
Equal amount of protein of each culture medium was mixed with equal volume of 2 fold concentration of non-reducing SDS sample buffer, and incubated at room temperature for two hours for sample to denature. The samples were loaded into each well of a 10% SDS polyacrylamide gel containing 1 mg/ml of bovine gelatin (Sigma), and run at 20 mA in ice bath by a BioRad Mini Protean gel apparatus. After dye front reached the bottom of the gel, the gel was washed three times, 15 minutes each, with 2.5% Triton X-100. Then, the gel was renatured in developing buffer (50 mM Tris-HCl, pH7.6, 10 mM CaCl2, 50 mM NaCl, 0.05% Brij35) at 37° C. for 24 hours. The gel was stained with 0.1% Coomassie blue R250 (Sigma) in 40% methanol and 10% acetic acid, and destained in 30% methanol and 7% acetic acid. […] The comparison of the enzymatic activities (clear band width) was analyzed by Image J (NIH).

[8] = Anti-lipid peroxidation activity (malondialdehyde/thiobarbituric acid); type: biochemical, Mouse; conditions: for OD (A532-A600): control (0) 0.973
Procedure: Mouse brain KCl extract was used as the source of lipid. Brain extract was incubated with 1 mM FeSO4 and 0.1 mM vitamin C at 37° C. for 90 minutes. The malondialdehyde formed by peroxyl radical was reacted with thiobarbituric acid to form an adduct that absorbed at 532 nm after centrifugation to discard TCA precipitation.

T2 sequence (P08254 100-272 limits assumed): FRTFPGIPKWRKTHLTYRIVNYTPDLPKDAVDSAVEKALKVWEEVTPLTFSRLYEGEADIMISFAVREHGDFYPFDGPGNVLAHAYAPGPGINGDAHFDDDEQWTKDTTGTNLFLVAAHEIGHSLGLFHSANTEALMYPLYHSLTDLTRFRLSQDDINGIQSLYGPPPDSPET

O=C(O)CN(CCN(CC(=O)O)CC(=O)O)CC(=O)O [EDTA]
inhibition of MMP-2 activity in cell free system (in words) (MMP-2 [1]): showed dose dependent inhibition | MMP-2 activity (% of control) (MMP-2 [1]; 0.1 mM): 46.6 % of control | MMP-2 activity (% of control) (MMP-2 [1]; 0.3 mM): 30.5 % of control

O=C(O[C@@H]1Cc2c(O)cc(O)cc2O[C@@H]1c1ccc(O)c(O)c1)c1cc(O)c(O)c(O)c1 [(−)-Epicatechin gallate]
Inhibition (%) ([2]; 6.1 μM): 50% | IC50 ([2]; read-out: Concentration giving 50 % inhibition (SOD mimetic assay)): 6100 nM

O=C1O[C@H]([C@@H](O)CO)C(O)=C1O [Vitamin C, vitamin C]
Inhibition (%) ([3]; 0.01 mM): 19.5% | Absorbance at 517 nm, Sample 1 to 3 ([3]; 0.01 mM): 0.753 and 0.790 and 0.781 | Absorbance at 517 nm, Average ([3]; 0.01 mM): 0.775 | Inhibition (%) ([3]; 0.03 mM): 64.8% | Absorbance at 517 nm, Sample 1 to 3 ([3]; 0.03 mM): 0.321 and 0.362 and 0.333 | Absorbance at 517 nm, Average ([3]; 0.03 mM): 0.339 | Inhibition (%) ([3]; 0.1 mM): 92.5% | Absorbance at 517 nm, Sample 1 to 3 ([3]; 0.1 mM): 0.068 and 0.079 | Absorbance at 517 nm, Average ([3]; 0.1 mM): 0.072

TIMP-1: reference agent in the MMP-3 and MMP-13 inhibition tables
Inhibition (%) ([4]; 0.0076 μM): 50% | IC50 ([4]; read-out: Concentration giving 50 % inhibition of MMP-3): 7.6 nM | Inhibition (%) ([5]; 0.0068 μM): 50% | IC50 ([5]; read-out: Concentration giving 50 % inhibition of MMP-13): 6.8 nM

N[C@H]1C(O)O[C@H](CO)[C@@H](O)[C@@H]1O (stereo partly drawn) [Glucosamine, glucosamine]
effects on ALP, collagen and GAGs in chondrocytes (in words) (chondrocytes): did not show significant effects | effect on ALP, collagen and GAGs in bone marrow mesenchymal stem cells (in words) [6]: did not show significant effect | Gene expression (% of control) ALP (human chondrocytes; 1 mM): 180.0 % of control | Gene expression (% of control) Aggrecan (human chondrocytes; 1 mM): 133.7 % of control | Gene expression (% of control) Aggrecanase (human chondrocytes; 1 mM): 130.9 % of control | Gene expression (% of control) BMP-2 (human chondrocytes; 1 mM): 173.4 % of control | Gene expression (% of control) Col II (human chondrocytes; 1 mM): 162.4 % of control | Gene expression (% of control) TGF-β (human chondrocytes; 1 mM): 120.9 % of control | expression of cartilage metabolism related genes (in words) (human chondrocytes; SO101C 0.01 mg/ml or glucosamine 1 mM): stimulated the expression of most of the cartilage metabolism related genes | MMP-2 activity (% of control) Active form (66K) (MMP-2 [7]): 118.2 % of control | MMP-2 activity (% of control) Latent form (72K) (MMP-2 [7]): 92.5 % of control

vitamin E
Inhibition (%) ([3]; 0.01 mM): 30.6% | Absorbance at 517 nm, Sample 1 to 3 ([3]; 0.01 mM): 0.647 and 0.688 and 0.668 | Absorbance at 517 nm, Average ([3]; 0.01 mM): 0.668 | Inhibition (%) ([3]; 0.03 mM): 76.9% | Absorbance at 517 nm, Sample 1 to 3 ([3]; 0.03 mM): 0.213 and 0.208 and 0.245 | Absorbance at 517 nm, Average ([3]; 0.03 mM): 0.222 | Inhibition (%) ([3]; 0.1 mM): 77.5% | Absorbance at 517 nm, Sample 1 to 3 ([3]; 0.1 mM): 0.204 and 0.241 and 0.205 | Absorbance at 517 nm, Average ([3]; 0.1 mM): 0.217 | inhibition of lipid peroxidation (in words) [8]: dose dependently inhibited lipid peroxidation | OD (A532-A600) ([8]; 0.003 mM): 0.844 | OD (A532-A600) ([8]; 0.01 mM): 0.697 | OD (A532-A600) ([8]; 0.03 mM): 0.526
